Experimental data from US11986493B2 (University of Pittsburgh—Of the Commonwealth System of …, priority 2013, dated 2024).

Tested on: subjects with pulmonary hypertension (WHO group I PAH, WHO group III PH)
Assay: Right heart catheterization: right heart/pulmonary artery hemodynamics, thermodilution cardiac output, PVR and SVR after inhaled NO and nebulized nitrite
Assay type: in vivo, human
Procedure: A total of 6 subjects with a confirmed diagnosis of pulmonary hypertension and meeting all inclusion/exclusion criteria were enrolled in the study which entailed a single right heart catheterization. The study population consisted of subjects with WHO group I PAH (n=3) and subjects with WHO group III PH (n=3) which received the dose escalation paradigm:
During the study right heart/pulmonary artery hemodynamics were measured as well as noninvasive systemic blood pressure monitoring and simultaneous RV echocardiography. Subjects were tested for the changes in pulmonary vascular resistance (PVR) measured by right heart catheterization and using thermodilution cardiac output measurement at time zero, at times 15, 30 and 45 minutes after completion of each nebulization dose.
Following right heart catheterization, the patient was stabilized for 20 minutes. Baseline blood collections and hemodynamic measurements were performed, followed by treatment with 40 ppm inhaled NO gas for […] with repeat hemodynamic measurements performed.
After stopping inhaled NO gas, a single dose of sildenafil was given if patients were on background sildenafil therapy at previously prescribed doses. 45-minutes after sildenafil dose baseline hemodynamics were performed.
Subjects were monitored carefully during and after the study treatment.
The study was conducted at the 3rd FL Catheterization Laboratory at Presbyterian Hospital of the University of Pittsburgh Medical Center (UPMC). Baseline vasoreactivity was recorded after Inhaled NO at 40 ppm for […]. […] Subjects were instructed to breathe as calmly, and deeply as possible until no more mist was formed in the nebulizer chamber. Subjects were also instructed to hold their breath for approximately 10 seconds after inhalation to allow the study drug to reach deep into the lungs.

[1] = Patient 1, nitrite 45 mg inhaled, 15 min
[2] = Patient 1, nitrite 45 mg inhaled, 30 min
[3] = Patient 1, nitrite 45 mg inhaled, 45 min
[4] = Patient 1, nitrite 45 mg inhaled, 60 min
[5] = Patient 1, nitrite 90 mg inhaled, 15 min
[6] = Patient 1, nitrite 90 mg inhaled, 30 min
[7] = Patient 1, nitrite 90 mg inhaled, 45 min
[8] = Patient 1, nitrite 90 mg inhaled, 60 min
[9] = Patient 2, nitrite 45 mg inhaled, 15 min
[10] = Patient 2, nitrite 45 mg inhaled, 30 min
[11] = Patient 2, nitrite 45 mg inhaled, 45 min

`O=NO` [nitrite, sodium nitrite] showed a CI [1] of 2.47, a CO [1] of 4.77 and a PA sat [1] of 66. It also gave a PAD [1] of 35, a PAS [1] of 93 and a PCWP [1] of 11. The PVR [1] was 9.09, the PVR/SVR [1] was 0.58 and the RA [1] was 9. The RVD [1] was 8, the RVS [1] was 98 and the SVR [1] was 15.66. The TPR [1] was 11.39, the mPAP [1] was 54.34 and the CI [2] was 2.65. The CO [2] was 5.12, the PA sat [2] was 68 and the PAD [2] was 36. It also gave a PAS [2] of 98, a PCWP [2] of 7 and a PVR [2] of 9.70. It also gave a PVR/SVR [2] of 0.64, an RA [2] of 10 and an RVD [2] of 10. It also gave an RVS [2] of 94, an SVR [2] of 15.24 and a TPR [2] of 11.07. For the same compound, the mPAP [2] was 56.67, the CI [3] was 2.51 and the CO [3] was 4.85. It also gave a PA sat [3] of 63, a PAD [3] of 38 and a PAS [3] of 100. For the same compound, the PCWP [3] was 9, the PVR [3] was 10.24 and the PVR/SVR [3] was 0.66. For the same compound, the RA [3] was 9, the RVD [3] was 9 and the RVS [3] was 95. For the same compound, the SVR [3] was 15.53, the TPR [3] was 12.10 and the mPAP [3] was 58.67. The CI [4] was 3.11, the CO [4] was 6.01 and the PA sat [4] was 62. For the same compound, the PAD [4] was 36, the PAS [4] was 98 and the PCWP [4] was 7. For the same compound, the PVR [4] was 8.27, the PVR/SVR [4] was 0.63 and the RA [4] was 9. The RVD [4] was 9, the RVS [4] was 94 and the SVR [4] was 13.15. For the same compound, the TPR [4] was 9.43, the mPAP [4] was 56.67 and the CI [5] was 2.93. The CO [5] was 5.65, the PA sat [5] was 64 and the PAD [5] was 32. The PAS [5] was 92, the PCWP [5] was 2 and the PVR [5] was 8.85. The PVR/SVR [5] was 0.68, the RA [5] was 3 and the RVD [5] was 3. The RVS [5] was 96, the SVR [5] was 13.10 and the TPR [5] was 9.20. For the same compound, the mPAP [5] was 52.01, the CI [6] was 2.99 and the CO [6] was 5.77. The PA sat [6] was 61, the PAD [6] was 32 and the PAS [6] was 92. For the same compound, the PCWP [6] was 2, the PVR [6] was 8.67 and the PVR/SVR [6] was 0.68. For the same compound, the RA [6] was 4, the RVD [6] was 3 and the RVS [6] was 91. For the same compound, the SVR [6] was 12.83, the TPR [6] was 9.01 and the mPAP [6] was 52.01. For the same compound, the CI [7] was 3.22, the CO [7] was 6.22 and the PA sat [7] was 62. It also gave a PAD [7] of 31, a PAS [7] of 90 and a PCWP [7] of 2. For the same compound, the PVR [7] was 7.83, the PVR/SVR [7] was 0.67 and the RA [7] was 3. It also gave an RVD [7] of 3, an RVS [7] of 92 and an SVR [7] of 11.63. For the same compound, the TPR [7] was 8.15, the mPAP [7] was 50.67 and the CI [8] was 3.14. The CO [8] was 6.06, the PA sat [8] was 62 and the PAD [8] was 30. It also gave a PAS [8] of 90, a PCWP [8] of 3 and a PVR [8] of 7.76. It also gave a PVR/SVR [8] of 0.61, an RA [8] of 3 and an RVD [8] of 2. It also gave an RVS [8] of 88, an SVR [8] of 12.65 and a TPR [8] of 8.25. For the same compound, the mPAP [8] was 50.01, the CI [9] was 3.67 and the CO [9] was 7.08. It also gave a PAD [9] of 19, a PAS [9] of 57 and a PCWP [9] of 8. It also gave a PVR [9] of 3.34, a PVR/SVR [9] of 0.25 and an RA [9] of 6. The SVR [9] was 13.28, the TPR [9] was 4.47 and the mPAP [9] was 31.67. It also gave a CI [10] of 3.88, a CO [10] of 7.48 and a PAD [10] of 22. It also gave a PAS [10] of 64, a PCWP [10] of 9 and a PVR [10] of 3.61. The PVR/SVR [10] was 0.30, the RA [10] was 6 and the SVR [10] was 11.99. For the same compound, the TPR [10] was 4.81, the mPAP [10] was 36.01 and the CI [11] was 3.93. For the same compound, the CO [11] was 7.58, the PAD [11] was 21 and the PAS [11] was 62. For the same compound, the PCWP [11] was 8, the PVR [11] was 3.52 and the PVR/SVR [11] was 0.29. The RA [11] was 3, the SVR [11] was 12.23 and the TPR [11] was 4.57. For the same compound, the mPAP [11] was 34.67.
